Active and inactive are the calls of the source. No cut-off for these calls is given here.
What was measured:
[1] = Volume of distribution in mouse at 5 mg/kg, iv and 10 mg/kg, po; assay type: ADME, organism-based; settings: in vivo
[2] = target: T1, Poly [ADP-ribose] polymerase 1 (Homo sapiens, UniProt P09874); assay: Inhibition of PARP1
[3] = Oral bioavailability in mouse at 10 mg/kg; assay type: ADME, organism-based; settings: in vivo
[4] = Clearance in mouse at 5 mg/kg, iv and 10 mg/kg, po; assay type: ADME, organism-based; settings: in vivo
[5] = Half life in mouse at 5 mg/kg, iv; assay type: ADME, organism-based; design: dose 5 mg/kg, route intravenous; settings: in vivo
[6] = AUC in mouse at 10 mg/kg, po; assay type: ADME, organism-based; design: dose 10 mg/kg, route oral; settings: plasma
B16-F10 = assay: Potentiation of temozolomide-induced cytotoxicity in mouse B16F10 cells […] C57BL/6 mouse melanoma model assessed as reduction in tumor volume at 30 mg/kg, po; assay type: functional, organism-based; design: dose 30 mg/kg
[7] = target: T1, Poly [ADP-ribose] polymerase 1; assay: Inhibition of PARP1 in cell based assay
[8] = Oral bioavailability in rat at 5 mg/kg; assay type: ADME, organism-based; settings: in vivo
[9] = Clearance in monkey at 2.5 mg/kg, iv and 2.5 mg/kg, po; assay type: ADME, organism-based, Macaca mulatta; settings: rhesus monkey, in vivo
[10] = Volume of distribution in dog at 2.5 mg/kg, iv and 2.5 mg/kg, po; assay type: ADME, organism-based, Canis lupus familiaris; settings: in vivo
[11] = AUC in rat at 5 mg/kg, po; assay type: ADME, organism-based; design: dose 5 mg/kg, route oral; settings: plasma
[12] = Clearance in dog at 2.5 mg/kg, iv and 2.5 mg/kg, po; assay type: ADME, organism-based, Canis lupus familiaris; settings: in vivo
[13] = Oral bioavailability in monkey at 2.5 mg/kg; assay type: ADME, organism-based, Macaca mulatta; settings: rhesus monkey, in vivo
[14] = AUC in dog at 2.5 mg/kg, po; assay type: ADME, organism-based, Canis lupus familiaris; design: dose 2.5 mg/kg, route oral; settings: plasma
[15] = Half life in monkey at 2.5 mg/kg, iv and 2.5 mg/kg, po; assay type: ADME, organism-based, Macaca mulatta; settings: rhesus monkey, in vivo
[16] = Oral bioavailability in dog at 2.5 mg/kg; assay type: ADME, organism-based, Canis lupus familiaris; settings: in vivo
[17] = Volume of distribution in mouse at 3 mg/kg, iv and 10 mg/kg, po; assay type: ADME, organism-based; settings: in vivo
[18] = Half life in rat at 5 mg/kg, iv and 5 mg/kg, po; assay type: ADME, organism-based; settings: in vivo
[19] = Volume of distribution in monkey at 2.5 mg/kg, iv and 2.5 mg/kg, po; assay type: ADME, organism-based, Macaca mulatta; settings: rhesus monkey, in vivo
[20] = Half life in dog at 2.5 mg/kg, iv and 2.5 mg/kg, po; assay type: ADME, organism-based, Canis lupus familiaris; settings: in vivo
[21] = Volume of distribution in rat at 5 mg/kg, iv and 5 mg/kg, po; assay type: ADME, organism-based; settings: in vivo
[22] = Half life in mouse at 3 mg/kg, iv and 10 mg/kg, po; assay type: ADME, organism-based; settings: in vivo
[23] = Clearance in rat at 5 mg/kg, iv and 5 mg/kg, po; assay type: ADME, organism-based; settings: in vivo
[24] = Clearance in mouse at 3 mg/kg, iv and 10 mg/kg, po; assay type: ADME, organism-based; settings: in vivo
[25] = AUC in monkey at 2.5 mg/kg, po; assay type: ADME, organism-based, Macaca mulatta; design: dose 2.5 mg/kg, route oral; settings: rhesus monkey, plasma

T1 sequence (P09874 whole entry): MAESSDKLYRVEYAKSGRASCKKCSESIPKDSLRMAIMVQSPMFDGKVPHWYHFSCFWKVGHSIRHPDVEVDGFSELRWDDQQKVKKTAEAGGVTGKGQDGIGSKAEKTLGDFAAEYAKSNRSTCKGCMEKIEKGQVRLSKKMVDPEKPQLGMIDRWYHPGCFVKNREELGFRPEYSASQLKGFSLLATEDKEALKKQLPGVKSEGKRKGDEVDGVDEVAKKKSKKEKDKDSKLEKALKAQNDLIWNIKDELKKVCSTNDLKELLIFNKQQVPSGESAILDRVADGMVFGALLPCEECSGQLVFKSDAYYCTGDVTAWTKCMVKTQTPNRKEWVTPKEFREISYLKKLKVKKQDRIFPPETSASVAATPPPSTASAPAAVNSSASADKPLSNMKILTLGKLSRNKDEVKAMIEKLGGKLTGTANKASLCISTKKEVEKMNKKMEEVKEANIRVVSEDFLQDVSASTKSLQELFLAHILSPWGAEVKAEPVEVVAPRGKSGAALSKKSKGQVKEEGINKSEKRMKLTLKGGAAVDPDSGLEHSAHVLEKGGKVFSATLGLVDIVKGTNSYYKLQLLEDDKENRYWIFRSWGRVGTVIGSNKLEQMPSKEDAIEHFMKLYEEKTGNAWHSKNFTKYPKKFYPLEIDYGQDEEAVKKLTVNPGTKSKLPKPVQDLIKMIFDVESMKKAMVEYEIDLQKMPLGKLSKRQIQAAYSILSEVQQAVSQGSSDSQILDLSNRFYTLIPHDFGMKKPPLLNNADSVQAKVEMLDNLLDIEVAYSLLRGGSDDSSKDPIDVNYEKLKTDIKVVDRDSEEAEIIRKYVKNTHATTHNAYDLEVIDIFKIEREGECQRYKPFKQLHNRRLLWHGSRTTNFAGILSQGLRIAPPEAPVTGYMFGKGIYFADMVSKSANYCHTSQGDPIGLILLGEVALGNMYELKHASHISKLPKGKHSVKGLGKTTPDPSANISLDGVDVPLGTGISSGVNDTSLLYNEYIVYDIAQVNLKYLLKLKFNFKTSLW

Question: For `CC(C)(c1nc2c(C(N)=O)cccc2[nH]1)N1CCCC1`, which Vd [1] is on record?
Answer: 1.8 L/kg

Question: And the Ki [2]?
Answer: 3 nM

Question: What about the bioavailability [3] of the same molecule?
Answer: 52%

Question: And the clearance [4]?
Answer: 50 mL/min/kg

Question: What about the half-life [5] of the same molecule?
Answer: 24 min

Question: What about the AUC [6] of the same molecule?
Answer: 6.33 µM·h

Question: And the Activity (B16-F10)?
Answer: Active

Question: What about the EC50 [7] of the same molecule?
Answer: 0.9 nM

Question: With `CC(CCN)c1nc2c(C(N)=O)cccc2[nH]1` (stereo not drawn) as the molecule, how does the Ki [2] read?
Answer: 32 nM

Question: For `CC(NCCc1ccccc1)c1nc2c(C(N)=O)cccc2[nH]1` (stereo not drawn), which Ki [2] is on record?
Answer: 35 nM

Question: With `CC(NC1CCCCC1)c1nc2c(C(N)=O)cccc2[nH]1` (stereo not drawn) as the molecule, how does the Ki [2] read?
Answer: 53 nM

Question: What does the source list for `CC(C)NC(C)(C)c1nc2c(C(N)=O)cccc2[nH]1`?
Answer: Vd [1]: 2.1 L/kg; bioavailability [8]: 26%; clearance [9]: 23.3 mL/min/kg; Vd [10]: 2.9 L/kg; AUC [11]: 0.74 µM·h; clearance [12]: 14.2 mL/min/kg; bioavailability [13]: 12.6%; Ki [2]: 7 nM; AUC [14]: 6.07 µM·h; bioavailability [3]: 82%; half-life [15]: 36 min; clearance [4]: 66.7 mL/min/kg; bioavailability [16]: 70.5%; Vd [17]: 2.1 L/kg; half-life [18]: 60 min; half-life [5]: 36 min; Vd [19]: 1.1 L/kg; AUC [6]: 5.78 µM·h; half-life [20]: 168 min; Vd [21]: 3.7 L/kg; half-life [22]: 36 min; clearance [23]: 85 mL/min/kg; clearance [24]: 66.7 mL/min/kg; AUC [25]: 0.65 µM·h; Activity (B16-F10): Active; EC50 [7]: 2 nM

Question: With `CNC(C)(C)c1nc2cccc(C(N)=O)c2[nH]1` as the molecule, how does the Vd [1] read?
Answer: 3.5 L/kg

Question: And the Ki [2]?
Answer: 4 nM

Question: What about the bioavailability [3] of the same molecule?
Answer: 85%

Question: And the clearance [4]?
Answer: 70 mL/min/kg

Question: What about the half-life [5] of the same molecule?
Answer: 36 min

Question: And the AUC [6]?
Answer: 8.64 µM·h

Question: What about the EC50 [7] of the same molecule?
Answer: 1.3 nM

Question: Which Ki [2] does the source give for `NC(=O)c1cccc2[nH]c(C3(N)CC3)nc12` here?
Answer: 25 nM

Question: Which Ki [2] does the source give for `CC(NC1CCCC1)c1nc2c(C(N)=O)cccc2[nH]1` (stereo not drawn) here?
Answer: 33 nM

Question: For `CCCNC(C)(C)c1nc2c(C(N)=O)cccc2[nH]1`, which Ki [2] is on record?
Answer: 10 nM

Question: What about the EC50 [7] of the same molecule?
Answer: 3 nM

Question: With `NC(=O)c1cccc2[nH]c(C3(N)CCc4ccccc4C3)nc12` (stereo not drawn) as the molecule, how does the Ki [2] read?
Answer: 18 nM

Question: For `CN(C)C(C)(C)c1nc2cccc(C(N)=O)c2[nH]1`, which Ki [2] is on record?
Answer: 9 nM

Question: And the EC50 [7]?
Answer: 1.8 nM

Question: With `CC(NS(=O)(=O)N(C)C)c1nc2c(C(N)=O)cccc2[nH]1` (stereo not drawn) as the molecule, how does the Ki [2] read?
Answer: 140 nM

Question: With `CCNC(=O)NC(C)(C)c1nc2c(C(N)=O)cccc2[nH]1` as the molecule, how does the Ki [2] read?
Answer: 870 nM

Question: Which Ki [2] does the source give for `CCCNC(C)c1nc2c(C(N)=O)cccc2[nH]1` (stereo not drawn) here?
Answer: 41 nM

Question: With `CN(C1CCC1)C(C)(C)c1nc2c(C(N)=O)cccc2[nH]1` as the molecule, how does the Ki [2] read?
Answer: 19 nM

Question: With `CN(CC1CCOC1)C(C)(C)c1nc2cccc(C(N)=O)c2[nH]1` (stereo not drawn) as the molecule, how does the Ki [2] read?
Answer: 17 nM

Question: What does the source list for `CC(C)(NCC1CC1)c1nc2c(C(N)=O)cccc2[nH]1`?
Answer: Vd [1]: 13.3 L/kg; Ki [2]: 7 nM; bioavailability [3]: 100%; clearance [4]: 192 mL/min/kg; half-life [5]: 48 min; AUC [6]: 3.38 µM·h; EC50 [7]: 2 nM

Question: Which Ki [2] does the source give for `CC(CCNC1CCCC1)c1nc2c(C(N)=O)cccc2[nH]1` (stereo not drawn) here?
Answer: 45 nM

Question: Which results are given for `CC(C)(NC1CCCC1)c1nc2c(C(N)=O)cccc2[nH]1`?
Answer: Ki [2]: 9 nM; EC50 [7]: 4 nM

Question: For `CC(N)c1nc2c(C(N)=O)cccc2[nH]1` (stereo not drawn), which Ki [2] is on record?
Answer: 50 nM

Question: Which results are given for `CC(C)(c1nc2cccc(C(N)=O)c2[nH]1)N1CCCCC1`?
Answer: Ki [2]: 15 nM; EC50 [7]: 3.1 nM

Question: For `NC(=O)c1cccc2[nH]c(C3(N)Cc4ccccc4C3)nc12`, which Ki [2] is on record?
Answer: 58 nM

Question: For `CC(NCC1CC1)c1nc2c(C(N)=O)cccc2[nH]1` (stereo not drawn), which Ki [2] is on record?
Answer: 24 nM

Question: With `CC(C)(N)c1nc2c(C(N)=O)cccc2[nH]1` as the molecule, how does the Ki [2] read?
Answer: 19 nM

Question: For `NC(=O)c1cccc2[nH]c(C3(N)CCCCC3)nc12`, which Ki [2] is on record?
Answer: 50 nM

Question: What does the source list for `CC(C)(NCCc1ccccc1)c1nc2c(C(N)=O)cccc2[nH]1`?
Answer: Ki [2]: 37 nM; EC50 [7]: 9 nM

Question: Which Ki [2] does the source give for `NC(=O)c1cccc2[nH]c(C3(N)CCC3)nc12` here?
Answer: 25 nM

Question: With `CC(C)NC(C)c1nc2c(C(N)=O)cccc2[nH]1` (stereo not drawn) as the molecule, how does the Ki [2] read?
Answer: 12 nM

Question: With `CCN(CC)C(C)c1nc2c(C(N)=O)cccc2[nH]1` (stereo not drawn) as the molecule, how does the Ki [2] read?
Answer: 61 nM

Reference: ChEMBL document CHEMBL1155103, “Synthesis and SAR of novel, potent and orally bioavailable benzimidazole inhibitors of poly(ADP-ribose) polymerase (PARP) with a quaternary methylene-amino substituent” (Bioorg Med Chem Lett, 2008)
